Consider 20 molecules from patent US11400081B2, “Compounds” (The University of Sheffield, priority 2017, dated 2022).

The experiment concerns the target T1, AM2 receptor (CALCRL+RAMP3) (Homo sapiens, UniProt O60896+Q16602).
T1 construct: host or cells: 1321N1
The experiment is described as follows: AM2 receptor inhibition, LANCE TR-FRET cAMP agonist-antagonist competition assay. Conditions: inhibition of AM induced cAMP activation; 1321N1 cells transfected with CALCRL+RAMP3; read-out: AM2 pIC50 (converted). The format is cell-based. The procedure: Compounds were assessed for their ability to inhibit ligand-induced elevations of cAMP, using the Perkin Elmer LANCE cAMP assay using commercially-available cells expressing a specific receptor of interest using the following general procedure:
Compounds were prepared in dimethyl sulfoxide (DMSO—99.9% pure) (Sigma Aldrich, Cat #: D4540) added to powder stocks to produce a 20 mM solution (100% DMSO) that was sonicated at 37° C. for 10 minutes to fully dissolve the compounds. The 20 mM stocks were diluted further in DMSO to produce a 2 mM solution that was sonicated at 37° C. for 10 minutes. 2 mM stocks were dissolved in assay/stimulation buffer to produce a 400 μM solution that was sonicated at 37° C. for 10 minutes for all cAMP assays. All stocks were stored at −20° C. Then serial dilution (Dilution factor 10) was performed to achieve the desire experimental concentrations.
Competition assays were performed according to the manufactures instructions using LANCE® TR-FRET cAMP assay kit (Perkin Elmer, Cat #: AD0264). Serial dilutions (3 μl/well) of the molecules were plated in a 384-well OptiPlate (Perkin Elmer, Cat #: 6007299) in duplicates. Appropriate controls (100% stimulation: Forskolin and 0% stimulation: Vehicle control) (6 μl/well) were included in each plate for data normalization. Following the compound addition, 6 μl of G-protein coupled receptor overexpressing cells/Alexa Fluor antibody solution (1:100 dilution) was added in each well at a desired density of 2500 cells/well. The overexpressing cell lines were purchased from DiscoveRx, Birmingham, UK. After spinning the plate at 1000 rpm for 1 minute and vortexing briefly, the cells were pre-incubated with the compounds for 30 minutes at room temperature (covered). Then 3 μl of the equivalent peptide ligand (EC50 dose) was added to all the wells except vehicle and forskolin controls. The plate were then spun down at 1000 rpm for 1 minute and once finished they were vortexed briefly and covered. Cells were stimulated in the presence of the ligands for 15 minutes at room temperature. After stimulation 12 μl of detection mix (Europium-Chelate streptavidin/biotinylated cAMP tracer solution) was added to all wells and incubated for 60 minutes at room temperature. The plate was then read on the Enspire multimode Plate reader (Perkin Elmer), at; 320/340 nm excitation and 615/665 nm emission was recorded.
• 28 mL Hank's Balanced salt solution (+MgCl2, +CaCl2)—(Thermo Fisher Cat #:14170112) • 150 μl HEPES (1M)—(Thermo Fisher Cat #:15630080) • 400 μl Stabilizer (DTPA) Purified BSA (7.5%)—(Perkin Elmer, Cat #: CR84-100) • 60 μl IBMX (250 mM)—(Sigma Aldrich, Cat #: 15879) Specific cAMP/Agonist-Antagonist Competition Assays
The ability of a compound to inhibit the AM induced cAMP activation in AM2 receptor-expressing cells (1321N1 cells transfected with CALCRL+RAMP3, sourced from DiscoverX catalogue number 95-0169C6) was assessed using the protocol above.

Molecules are shown by their SMILES.

T1 sequence (Q16602 23-461): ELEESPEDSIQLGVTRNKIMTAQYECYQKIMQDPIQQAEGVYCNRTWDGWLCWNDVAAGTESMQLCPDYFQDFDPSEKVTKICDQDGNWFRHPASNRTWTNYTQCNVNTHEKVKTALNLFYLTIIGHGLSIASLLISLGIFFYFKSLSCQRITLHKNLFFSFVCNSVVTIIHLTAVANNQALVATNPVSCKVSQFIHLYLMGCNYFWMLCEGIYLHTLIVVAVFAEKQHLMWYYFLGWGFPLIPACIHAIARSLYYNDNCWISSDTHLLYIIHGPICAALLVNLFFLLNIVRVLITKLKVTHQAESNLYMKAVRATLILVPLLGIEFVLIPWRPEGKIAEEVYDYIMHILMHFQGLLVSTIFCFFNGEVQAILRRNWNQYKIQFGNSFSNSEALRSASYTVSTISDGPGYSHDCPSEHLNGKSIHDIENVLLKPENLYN
T1 sequence (O60896 24-148): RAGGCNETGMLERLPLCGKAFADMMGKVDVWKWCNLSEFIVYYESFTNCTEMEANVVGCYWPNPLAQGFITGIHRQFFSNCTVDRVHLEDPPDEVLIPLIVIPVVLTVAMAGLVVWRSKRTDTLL

For the molecule `O=C(CN(Cc1ccccc1CN1CCC1)C(=O)C1CCCC1)Nc1ccc2c(c1)CC1(C2)C(=O)Nc2ncccc21` (centres unmarked) [Example 46, N-(2-(Azetidin-1-ylmethyl)benzyl)-N-(2-oxo-2-((2′-oxo-1,1′,2′,3-tetrahydrospiro[indene-2,3′-pyrrolo[2,3-b]pyridin]-5-yl)amino)ethyl)cyclopentanecarboxamide], the IC50 was 0.00282 µM.
For the molecule `CC1(C(=O)N(CC(=O)Nc2ccc3c(c2)CC2(C3)C(=O)Nc3ncccc32)Cc2ccccc2CN2CCC2)CC1` (centres unmarked) [Example 47, N-(2-(Azetidin-1-ylmethyl)benzyl)-1-methyl-N-(2-oxo-2-((2′-oxo-1,1′,2′,3-tetrahydrospiro[indene-2,3′-pyrrolo[2,3-b]pyridin]-5-yl)amino)ethyl)-cyclopropanecarboxamide], the IC50 was 0.0155 µM.
With `O=C(CN(Cc1ccccc1CN1CCC1)C(=O)C1CC1)Nc1ccc2c(c1)CC1(C2)C(=O)Nc2ncccc21` (centres unmarked) [Example 49, N-(2-(Azetidin-1-ylmethyl)benzyl)-N-(2-oxo-2-((2′-oxo-1,1′,2′,3-tetrahydrospiro[indene-2,3′-pyrrolo[2,3-b]pyridin]-5-yl)amino)ethyl)cyclopropanecarboxamide] the figure was 0.0102 µM.
In the case of `COC(=O)N(CC(=O)Nc1ccc2c(c1)CC1(C2)C(=O)Nc2ncccc21)Cc1ccccc1CN1CCC1` (centres unmarked) [Example 50, Methyl 2-(azetidin-1-ylmethyl)benzyl(2-oxo-2-((2′-oxo-1,1′,2′,3-tetrahydrospiro[indene-2,3′-pyrrolo[2,3-b]pyridin]-5-yl)amino)ethyl)carbamate], the IC50 was 0.0741 µM.
With `O=C(CN(Cc1ccccc1CN1CCC1)C(=O)c1ccccc1)Nc1ccc2c(c1)CC1(C2)C(=O)Nc2ncccc21` (centres unmarked) [Example 51, N-(2-(Azetidin-1-ylmethyl)benzyl)-N-(2-oxo-2-((2′-oxo-1,1′,2′,3-tetrahydrospiro[indene-2,3′-pyrrolo[2,3-b]pyridin]-5-yl)amino)ethyl)benzamide], the IC50 was 0.0851 µM.
With `O=C(CN(Cc1ccccc1CN1CCC1)C(=O)c1ccccn1)Nc1ccc2c(c1)CC1(C2)C(=O)Nc2ncccc21` (centres unmarked) [Example 52, N-(2-(Azetidin-1-ylmethyl)benzyl)-N-(2-oxo-2-((2′-oxo-1,1′,2,3-tetrahydrospiro[indene-2,3′-pyrrolo[2,3-b]pyridin]-5-yl)amino)ethyl)picolinamide], the IC50 is 0.0468 µM.
Next, `CNCc1ccc(F)cc1CN(CC(=O)Nc1ccc2c(c1)CC1(C2)C(=O)Nc2ncccc21)C(=O)C(C)(C)C` (centres unmarked) [Example 54, N-(5-Fluoro-2-((methylamino)methyl)benzyl)-N-(2-oxo-2-((2′-oxo-1,1′,2′,3-tetrahydrospiro[indene-2,3′-pyrrolo[2,3-b]pyridin]-5-yl)amino)ethyl)pivalamide]: 0.00355 µM; `CNCc1cc(F)ccc1CN(CC(=O)Nc1ccc2c(c1)CC1(C2)C(=O)Nc2ncccc21)C(=O)C(C)(C)C` (centres unmarked) [Example 55, N-(4-Fluoro-2-((methylamino)methyl)benzyl)-N-(2-oxo-2-((2′-oxo-1,1′,2′,3-tetrahydrospiro[indene-2,3′-pyrrolo[2,3-b]pyridin]-5-yl)amino)ethyl)pivalamide]: 0.00977 µM.
As for `CNCc1cccc(F)c1CN(CC(=O)Nc1ccc2c(c1)CC1(C2)C(=O)Nc2ncccc21)C(=O)C(C)(C)C` (centres unmarked) [Example 56, N-(2-Fluoro-6-((methylamino)methyl)benzyl)-N-(2-oxo-2-((2′-oxo-1,1′,2′,3-tetrahydrospiro[indene-2,3′-pyrrolo[2,3-b]pyridin]-5-yl)amino)ethyl)pivalamide], the IC50 was 0.151 µM.
As for `CNCc1ccccc1CN(CC(=O)Nc1ccc2c(c1)CC1(C2)C(=O)Nc2ncccc21)C(=O)COC` (centres unmarked) [Example 57, 2-Methoxy-N-(2-((methylamino)methyl)benzyl)-N-(2-oxo-2-((2′-oxo-1,1′,2′,3-tetrahydrospiro[indene-2,3′-pyrrolo[2,3-b]pyridin]-5-yl)amino)ethyl)acetamide], the IC50 is 0.269 µM.
Next, `CNCc1ccccc1CN(CC(=O)Nc1ccc2c(c1)CC1(C2)C(=O)Nc2ncccc21)C(=O)C1(C)COC1` (centres unmarked) [Example 58, 3-Methyl-N-(2-((methylamino)methyl)benzyl)-N-(2-oxo-2-((2′-oxo-1,1′,2′,3-tetrahydrospiro[indene-2,3′-pyrrolo[2,3-b]pyridin]-5-yl)amino)ethyl)oxetane-3-carboxamide]: 0.0151 µM.
Take `CNCc1ccccc1CN(CC(=O)Nc1ccc2c(c1)CC1(C2)C(=O)Nc2ncccc21)C(=O)C(C)(C)OC` (centres unmarked) [Example 59, 2-Methoxy-2-methyl-N-(2-((methylamino)methyl)benzyl)-N-(2-oxo-2-((2′-oxo-1,1′,2′,3-tetrahydrospiro[indene-2,3′-pyrrolo[2,3-b]pyridin]-5-yl)amino)ethyl)propanamide]: the IC50 was 0.00933 µM.
Consider `CNCc1ccccc1CN(CC(=O)Nc1ccc2c(c1)CC1(C2)C(=O)Nc2ncccc21)C(=O)c1cscn1` (centres unmarked) [Example 60, N-(2-((Methylamino)methyl)benzyl)-N-(2-oxo-2-((2′-oxo-1,1′,2′,3-tetrahydrospiro[indene-2,3′-pyrrolo[2,3-b]pyridin]-5-yl)amino)ethyl)thiazole-4-carboxamide], for which the IC50 was 0.00708 µM.
As to `CNCc1ccccc1CN(CC(=O)Nc1ccc2c(c1)CC1(C2)C(=O)Nc2ncccc21)C(=O)c1csc(C)n1` (centres unmarked) [Example 61, 2-Methyl-N-(2-((methylamino)methyl)benzyl)-N-(2-oxo-2-((2′-oxo-1,1′,2′,3-tetrahydrospiro[indene-2,3′-pyrrolo[2,3-b]pyridin]-5-yl)amino)ethyl)thiazole-4-carboxamide], the IC50 was 0.219 µM.
Turning to `CNCc1ccccc1CN(CC(=O)Nc1ccc2c(c1)CC1(C2)C(=O)Nc2ncccc21)C(=O)c1ncsc1C` (centres unmarked) [Example 62, 5-Methyl-N-(2-((methylamino)methyl)benzyl)-N-(2-oxo-2-((2′-oxo-1,1′,2′,3-tetrahydrospiro[indene-2,3′-pyrrolo[2,3-b]pyridin]-5-yl)amino)ethyl)thiazole-4-carboxamide], the IC50 was 0.0427 µM.
Turning to `CNCc1ccccc1CN(CC(=O)Nc1ccc2c(c1)CC1(C2)C(=O)Nc2ncccc21)C(=O)C1CCCO1` (centres unmarked) [Example 63, N-(2-((Methylamino)methyl)benzyl)-N-(2-oxo-2-((2′-oxo-1,1′,2′,3-tetrahydrospiro[indene-2,3′-pyrrolo[2,3-b]pyridin]-5-yl)amino)ethyl)tetrahydrofuran-2-carboxamide], the IC50 is 0.0537 µM.
As to `CNCc1ccccc1CN(CC(=O)Nc1ccc2c(c1)CC1(C2)C(=O)Nc2ncccc21)C(=O)C1CCCCO1` (centres unmarked) [Example 64, N-(2-((Methylamino)methyl)benzyl)-N-(2-oxo-2-((2′-oxo-1,1′,2′,3-tetrahydrospiro[indene-2,3′-pyrrolo[2,3-b]pyridin]-5-yl)amino)ethyl)tetrahydro-2H-pyran-2-carboxamide], the IC50 was 0.0851 µM.
For the molecule `CNCc1ccccc1CN(CC(=O)Nc1ccc2c(c1)CC1(C2)C(=O)Nc2ncccc21)C(=O)C1CCCC1` (centres unmarked) [Example 65, N-(2-((methylamino)methyl)benzyl)-N-(2-oxo-2-((2′-oxo-1,1′,2′,3-tetrahydrospiro[indene-2,3′-pyrrolo[2,3-b]pyridin]-5-yl)amino)ethyl)cyclopentanecarboxamide], the IC50 was 0.00282 µM.
As for `CNCc1ccccc1CN(CC(=O)Nc1ccc2c(c1)CC1(C2)C(=O)Nc2ncccc21)C(=O)N1CCC(OC)C1` (centres unmarked) [Example 67, 3-Methoxy-N-[[2-(methylaminomethyl)phenyl]methyl]-N-[2-oxo-2-[(2-oxospiro[1H-pyrrolo[2,3-b]pyridine-3,2′-indane]-5′-yl)amino]ethyl]pyrrolidine-1-carboxamide], the IC50 was 0.0646 µM.
Turning to `CNCc1ccccc1CN(CC(=O)Nc1ccc2c(c1)CC1(C2)C(=O)Nc2ncccc21)C(=O)C1CN(C(C)=O)C1` (centres unmarked) [Example 68, 1-(Acetyl)-N-[[2-(methylaminomethyl)phenyl]methyl]-N-[2-oxo-2-[(2-oxospiro[1H-pyrrolo[2,3-b]pyridine-3,2′-indane]-5′-yl)amino]ethyl]azetidine-3-carboxamide], the IC50 is 0.0331 µM.
